This note sets out measurements from US9409908B2 (priority 2012, dated 2016).

Where a name gives a salt, the structure may show the parent alone.

What is called Ki is the equilibrium dissociation constant of an inhibitor or competing ligand from its target.

In one experiment the target is purified human Factor XIa (Homo sapiens (Human), UniProt P03951). Description: biochemical. The following applies: read-out: Factor XIa Ki. It is filed as biochemical.
Chain of purified human Factor XIa (P03951 whole entry, looked up): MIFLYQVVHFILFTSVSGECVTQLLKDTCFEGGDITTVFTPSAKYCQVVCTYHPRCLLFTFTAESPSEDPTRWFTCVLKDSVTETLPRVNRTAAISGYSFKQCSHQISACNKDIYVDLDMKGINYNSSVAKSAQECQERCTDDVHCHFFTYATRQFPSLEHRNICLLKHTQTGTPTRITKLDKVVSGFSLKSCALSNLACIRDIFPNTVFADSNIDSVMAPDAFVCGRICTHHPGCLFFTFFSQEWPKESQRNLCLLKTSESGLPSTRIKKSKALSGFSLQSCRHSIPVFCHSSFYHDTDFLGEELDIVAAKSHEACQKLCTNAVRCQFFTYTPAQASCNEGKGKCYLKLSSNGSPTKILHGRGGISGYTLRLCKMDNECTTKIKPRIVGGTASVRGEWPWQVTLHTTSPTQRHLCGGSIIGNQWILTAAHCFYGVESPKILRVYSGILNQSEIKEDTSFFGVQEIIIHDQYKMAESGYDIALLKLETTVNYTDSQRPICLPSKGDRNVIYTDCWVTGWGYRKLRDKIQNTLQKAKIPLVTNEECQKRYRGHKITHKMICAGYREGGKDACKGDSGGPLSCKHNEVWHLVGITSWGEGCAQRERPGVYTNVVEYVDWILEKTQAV
Chain of purified human Factor XIa (P03951 whole entry partner, looked up): as the sequence (P03951 whole entry, looked up) above
As for `C[C@@H]1CCC[C@H](N2CCC(c3c(F)ccc(Cl)c3F)=CC2=O)c2cc(ccn2)-c2ccc(Nc3nnc(-c4ccco4)o3)cc2NC1=O` [Example 103, (10R,14S)-14-[4-(3-Chloro-2,6-difluorophenyl)-6-oxo-1,2,3,6-tetrahydropyridin-1-yl]-5-{[5-(furan-2-yl)-1,3,4-oxadiazol-2-yl]amino}-10-methyl-8,16-diazatricyclo[13.3.1.0^2,7]nonadeca-1(19),2(7),3,5,15,17-hexaen-9-one, TFA salt], the Ki was 6.13 nM.

For `COC(=O)Nc1ccc2c(c1)NC(=O)[C@H](C)CCC[C@H](N1CCC(c3c(C#N)ccc(C)c3F)=CC1=O)c1cc-2ccn1` [Example 104, Methyl N-[(10R,14S)-14-[4-(6-cyano-2-fluoro-3-methylphenyl)-6-oxo-1,2,3,6-tetrahydropyridin-1-yl]-10-methyl-9-oxo-8,16-diazatricyclo[13.3.1.0^2,7]nonadeca-1(18),2,4,6,15(19),16-hexaen-5-yl]carbamate, TFA salt], the Ki came to 0.09 nM.

On to `C[C@@H]1CCC[C@H](N2CCC(c3c(F)ccc(Cl)c3F)=CC2=O)c2cc(ccn2)-c2ccc(NC3O[C@H](CO)[C@@H](O)[C@H](O)[C@@H]3N)cc2NC1=O` (stereo partly drawn) [Example 127, (10R,14S)-5-{[(3S,4R,5S,6R)-3-amino-4,5-dihydroxy-6-(hydroxymethyl)oxan-2-yl]amino)-14-[4-(3-chloro-2,6-difluorophenyl)-6-oxo-1,2,3,6-tetrahydropyridin-1-yl]-10-methyl-8,16-diazatricyclo[13.3.1.0^2,7]nonadeca-1(19),2,4,6,15,17-hexaen-9-one], for which the Ki is 3.61 nM.

Take `C[C@@H]1CCC[C@H](N2CCC(c3c(F)ccc(Cl)c3F)=CC2=O)c2cc(ccn2)-c2cc(-c3nn[nH]n3)ccc2NC1=O` [Example 140, (10R,14S)-14-[4-(3-chloro-2,6-difluorophenyl)-6-oxo-1,2,3,6-tetrahydropyridin-1-yl]-10-methyl-4-(2H-1,2,3,4-tetrazol-5-yl)-8,16-diazatricyclo[13.3.1.0^2,7]nonadeca-1(19),2(7),3,5,15,17-hexaen-9-one]: the Ki was found to be 1.34 nM.

Consider `C[C@@H]1CCC[C@H](N2CCC(c3c(F)ccc(Cl)c3F)=CC2=O)c2cc(ccn2)-c2cc(F)ccc2NC1=O` [Example 145, (10R,14S)-14-[4-(3-chloro-2,6-difluorophenyl)-6-oxo-1,2,3,6-tetrahydropyridin-1-yl]-4-fluoro-10-methyl-8,16-diazatricyclo[13.3.1.0^2,7]nonadeca-1(19),2(7),3,5,15,17-hexaen-9-one], for which the Ki came out at 18.6 nM.

With `C[C@@H]1CCC[C@H](N2CCC(c3c(F)ccc(Cl)c3F)=CC2=O)c2cc(ccn2)-c2cc(C(=O)O)ccc2NC1=O` [Example 146, (10R,14S)-14-[4-(3-chloro-2,6-difluorophenyl)-6-oxo-1,2,3,6-tetrahydropyridin-1-yl]-10-methyl-9-oxo-8,16-diazatricyclo[13.3.1.0^2,7]nonadeca-1(19),2(7),3,5,15,17-hexaene-4-carboxylic acid], the Ki turned out to be 2.45 nM.

`COC(=O)Nc1ccc2c(c1)NC(=O)[C@H](C)CCC[C@H](N1CCC(c3ccnc(Cl)c3)=CC1=O)c1cc-2ccn1` [Example 156, Methyl N-[(10R,14S)-14-[4-(2-chloropyridin-4-yl)-6-oxo-1,2,3,6-tetrahydropyridin-1-yl]-10-methyl-9-oxo-8,16-diazatricyclo[13.3.1.0^2,7]nonadeca-1(19),2,4,6,15,17-hexaen-5-yl]carbamate, 2 TFA salt]: the Ki is over 446 nM.

On to `COC(=O)c1ccc2c(c1)-c1cccc(c1)[C@@H](N1CCC(c3c(C(C)=O)ccc(Cl)c3F)=CC1=O)CCC[C@@H](C)C(=O)N2` [Example 172, Methyl (10R,14S)-14-[4-(6-acetyl-3-chloro-2-fluorophenyl)-6-oxo-1,2,3,6-tetrahydropyridin-1-yl]-10-methyl-9-oxo-8-azatricyclo[13.3.1.0^2,7]nonadeca-1(18),2,4,6,15(19),16-hexaene-4-carboxylate], for which the Ki stood at 140 nM.

In the case of `COC(=O)Nc1ccc2c(c1)NC(=O)[C@H](C)CCC[C@H](N1CCC(c3c(C#N)ccc(Cl)c3F)=CC1=O)c1cccc-2c1` [Example 173, Methyl N-[(10R,14S)-14-[4-(3-chloro-6-cyano-2-fluorophenyl)-6-oxo-1,2,3,6-tetrahydropyridin-1-yl]-10-methyl-9-oxo-8-azatricyclo[13.3.1.0^2,7]nonadeca-1(18),2,4,6,15(19),16-hexaen-5-yl]carbamate], the Ki was 0.42 nM.

Turning to `C#Cc1ccc(Cl)c(F)c1C1=CC(=O)N([C@H]2CCC[C@@H](C)C(=O)Nc3cc(NC(=O)OC)ccc3-c3ccnc2c3)CC1` [Example 181, Methyl N-[(10R,14S)-14-[4-(3-chloro-6-ethynyl-2-fluorophenyl)-6-oxo-1,2,3,6-tetrahydropyridin-1-yl]-10-methyl-9-oxo-8,16-diazatricyclo[13.3.1.0^2,7]nonadeca-1(19),2(7),3,5,15,17-hexaen-5-yl]carbamate], the Ki stood at 0.1 nM.

Regarding `C[C@@H]1CCC[C@H](N2CCC(c3cc(Cl)ccc3-n3ccnn3)=CC2=O)c2cc(ccn2)-c2ccccc2NC1=O` [Example 189, (10R,14S)-14-{4-[5-chloro-2-(1H-1,2,3-triazol-1-yl)phenyl]-6-oxo-1,2,3,6-tetrahydropyridin-1-yl}-10-methyl-8,16-diazatricyclo[13.3.1.0^2,7]nonadeca-1(19),2(7),3,5,15,17-hexaen-9-one], the inhibitory constant (Ki) is 2.28 nM.

As to `C[C@@H]1CCC[C@H](N2CCC(c3c(F)ccc(Cl)c3F)=CC2=O)c2cc(ccn2)-c2ccc(NC(=N)N)cc2NC1=O` [Example 192, 1-[(10R,14S)-14-[4-(3-chloro-2,6-difluorophenyl)-6-oxo-1,2,3,6-tetrahydropyridin-1-yl]-10-methyl-9-oxo-8,16-diazatricyclo[13.3.1.0^2,7]nonadeca-1(19),2,4,6,15,17-hexaen-5-yl]guanidine, 2 TFA salt], the inhibition constant (Ki) worked out at 91 nM.

On to `COC(=O)c1cc2c(cc1N)NC(=O)[C@H](C)CCC[C@H](N1CCC(c3c(F)ccc(Cl)c3F)=CC1=O)c1cc-2ccn1` [Example 197, Methyl (10R,14S)-5-amino-14-[4-(3-chloro-2,6-difluorophenyl)-6-oxo-1,2,3,6-tetrahydropyridin-1-yl]-10-methyl-9-oxo-8,16-diazatricyclo[13.3.1.0^2,7]nonadeca-1(19),2,4,6,15,17-hexaene-4-carboxylate, 2 TFA salt], for which the Ki stood at 4.54 nM.

Turning to `C[C@@H]1CCC[C@H](N2CCC(c3c(F)ccc(Cl)c3F)=CC2=O)c2cc(ccn2)-n2nc(C(=O)O)cc2NC1=O` [Example 222, (9R,13S)-13-[4-(3-chloro-2,6-difluorophenyl)-6-oxo-1,2,3,6-tetrahydropyridin-1-yl]-9-methyl-8-oxo-2,3,7,15-tetraazatricyclo[12.3.1.0^2,6]octadeca-1(18),3,5,14,16-pentaene-4-carboxylic acid], the Ki worked out at 88.4 nM.

In the case of `C[C@@H]1CCC[C@H](N2CCC(c3c(F)ccc(Cl)c3F)=CC2=O)c2cc(ccn2)-n2nc(C3CC3)cc2NC1=O` [Example 223, (9R,13S)-13-[4-(3-chloro-2,6-difluorophenyl)-6-oxo-1,2,3,6-tetrahydropyridin-1-yl]-4-cyclopropyl-9-methyl-2,3,7,15-tetraazatricyclo[12.3.1.0^2,6]octadeca-1(18),3,5,14,16-pentaen-8-one], the Ki amounted to 302 nM.

Consider `COC(=O)Nc1cc2n(n1)-c1ccnc(c1)[C@@H](N1CCC(c3c(F)ccc(Cl)c3F)=CC1=O)CCC[C@@H](C)C(=O)N2` [Example 224, Methyl N-[(9R,13S)-13-[4-(3-chloro-2,6-difluorophenyl)-6-oxo-1,2,3,6-tetrahydropyridin-1-yl]-9-methyl-8-oxo-2,3,7,15-tetraazatricyclo[12.3.1.0^2,6]octadeca-1(18),3,5,14,16-pentaen-4-yl]carbamate], for which the Ki stood at 298 nM.

The target in the next experiment is purified human plasma kallikrein (Homo sapiens (Human), UniProt P03952). Put plainly: biochemical. It is filed as biochemical. The following applies: Plasma Kallikrein Ki.
Chain of purified human plasma kallikrein (P03952 whole entry, looked up): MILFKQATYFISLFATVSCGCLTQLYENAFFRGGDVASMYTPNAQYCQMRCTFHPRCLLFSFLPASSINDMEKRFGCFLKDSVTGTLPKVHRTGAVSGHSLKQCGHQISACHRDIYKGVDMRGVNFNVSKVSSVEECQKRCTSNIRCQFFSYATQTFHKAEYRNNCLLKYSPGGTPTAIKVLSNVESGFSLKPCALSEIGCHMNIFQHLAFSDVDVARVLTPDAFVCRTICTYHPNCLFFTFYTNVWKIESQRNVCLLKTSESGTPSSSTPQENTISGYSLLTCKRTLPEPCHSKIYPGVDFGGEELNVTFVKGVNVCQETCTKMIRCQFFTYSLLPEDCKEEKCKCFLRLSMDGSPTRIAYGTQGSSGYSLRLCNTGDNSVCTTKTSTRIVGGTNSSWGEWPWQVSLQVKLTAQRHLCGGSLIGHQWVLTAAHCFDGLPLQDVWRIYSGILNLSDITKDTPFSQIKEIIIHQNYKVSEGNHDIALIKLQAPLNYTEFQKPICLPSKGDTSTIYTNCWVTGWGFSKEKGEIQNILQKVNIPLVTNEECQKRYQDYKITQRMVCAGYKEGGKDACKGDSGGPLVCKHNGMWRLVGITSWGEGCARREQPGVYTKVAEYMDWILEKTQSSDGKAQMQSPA
Chain of purified human plasma kallikrein (P03952 whole entry partner, looked up): as the sequence (P03952 whole entry, looked up) above
In the case of `COC(=O)Nc1ccc2c(c1)NC(=O)[C@H](C)CCC[C@H](N1CC(C)C(c3c(F)ccc(Cl)c3F)=CC1=O)c1cc-2ccn1` (single isomer, unassigned; isomer 2) [Example 178], the Ki came out at 5.68 nM.

The experiment is the same for the next values; noted with them: read-out: Plasma Kallikrein Ki.
As to `C[C@@H]1CCC[C@H](N2CCC(c3c(F)ccc(Cl)c3F)=CC2=O)c2cc(ccn2)-c2cc(Cl)c(O)c(Cl)c2NC1=O` [Example 20, (10R,14S)-4,6-Dichloro-14-[4-(3-chloro-2,6-difluorophenyl)-6-oxo-1,2,3,6-tetrahydropyridin-1-yl]-5-hydroxy-10-methyl-8,16-diazatricyclo[13.3.1.0^2,7]nonadeca-1(19),2,4,6,15,17-hexaen-9-one, TFA salt], the Ki came out at 973 nM.

For the compound `CC1CCC[C@H](N2CCC(c3c(F)ccc(Cl)c3F)=CC2=O)c2cc(ccn2)-c2ccc(C#N)cc2NC1=O` (stereo partly drawn) [Example 109, (14S)-14-[4-(3-Chloro-2,6-difluorophenyl)-6-oxo-1,2,3,6-tetrahydropyridin-1-yl]-10-methyl-9-oxo-8,16-diazatricyclo[13.3.1.0^2,7]nonadeca-1(18),2,4,6,15(19),16-hexaene-5-carbonitrile, TFA salt], the Ki stood at 40 nM.

Consider `C[C@@H]1CCC[C@H](N2CCC(c3c(F)ccc(Cl)c3F)=CC2=O)c2cc(ccn2)-c2ccc(NC3O[C@H](CO)[C@@H](O)[C@@H](O)[C@H]3NC(=O)OC(C)(C)C)cc2NC1=O` (stereo partly drawn) [Example 132, tert-butyl N-[(3R,4S,5S,6R)-2-{[(10R,14S)-14-[4-(3-chloro-2,6-difluorophenyl)-6-oxo-1,2,3,6-tetrahydropyridin-1-yl]-10-methyl-9-oxo-8,16-diazatricyclo[13.3.1.0^2,7]nonadeca-1(19),2,4,6,15,17-hexaen-5-yl]amino}-4,5-dihydroxy-6-(hydroxymethyl)oxan-3-yl]carbamate], for which the Ki came out at 17.3 nM.

Take `COC(=O)Nc1ccc2c(c1)NC(=O)[C@H](C)CCC[C@H](N1CCC(c3cccc(Cl)c3F)=CC1=O)c1nc-2c(C)[nH]1` [Example 151, Methyl N-[(10R,14S)-14-[4-(3-chloro-2-fluorophenyl)-6-oxo-1,2,3,6-tetrahydropyridin-1-yl]-10,17-dimethyl-9-oxo-8,16,18-triazatricyclo[13.2.1.0^2,7]octadeca-1(17),2,4,6,15(18)-pentaen-5-yl]carbamate]: the Ki stood at 23.8 nM.
